The values below come from article PMC2574903 (Biochimica et biophysica acta, 2008).

Read-outs that look alike come from different tables or passages of the source. Where only a bound is given, the exact number is not on record here.

Series [1] has as its system intracellular carboxylesterase activity in U373MG cells. The settings on record: cited from earlier work.
Series [2] deals with THP-1 macrophages. The series can be described thus: Cholesteryl ester retention in cholesterol-loaded THP-1 macrophages. It counts as cell-based, human. The settings on record: for Total cellular cholesterol content of macrophages / Free cholesterol levels: 50 μM benzil or 10 μM paraoxon, 48-h efflux period; for Free cholesterol levels: vs vehicle.
In series [3] the target is T1, porcine pancreatic CEL (Sus scrofa, UniProt A0A286ZKB1).
T1 sequence (A0A286ZKB1 1-682): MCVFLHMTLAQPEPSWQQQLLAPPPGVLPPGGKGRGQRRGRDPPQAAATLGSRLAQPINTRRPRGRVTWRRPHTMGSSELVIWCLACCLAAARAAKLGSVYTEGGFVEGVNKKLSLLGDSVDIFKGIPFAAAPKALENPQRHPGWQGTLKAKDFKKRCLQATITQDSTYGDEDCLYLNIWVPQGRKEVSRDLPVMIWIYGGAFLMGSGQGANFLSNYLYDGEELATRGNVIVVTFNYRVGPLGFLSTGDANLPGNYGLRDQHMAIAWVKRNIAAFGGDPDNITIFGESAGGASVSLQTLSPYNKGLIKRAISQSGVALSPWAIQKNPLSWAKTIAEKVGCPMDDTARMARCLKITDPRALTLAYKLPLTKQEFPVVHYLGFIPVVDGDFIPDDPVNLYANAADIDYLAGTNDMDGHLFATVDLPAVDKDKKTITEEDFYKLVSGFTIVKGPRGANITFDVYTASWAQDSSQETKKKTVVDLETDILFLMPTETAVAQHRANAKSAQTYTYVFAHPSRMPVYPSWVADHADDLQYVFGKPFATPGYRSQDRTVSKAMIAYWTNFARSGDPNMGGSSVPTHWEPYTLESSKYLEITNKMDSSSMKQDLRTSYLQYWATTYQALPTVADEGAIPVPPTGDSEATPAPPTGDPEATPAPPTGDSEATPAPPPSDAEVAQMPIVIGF
As to the kind of experiment: Hydrolysis of 4-MUBO by porcine bile-salt stimulated cholesterol esterase. It counts as biochemical. The settings on record: 4-MUBO substrate; no bile salts added; Supplementary Fig. 1.

For series [4], the target named is T2, CES1 (Homo sapiens, UniProt P23141).
T2 sequence (P23141 18-567): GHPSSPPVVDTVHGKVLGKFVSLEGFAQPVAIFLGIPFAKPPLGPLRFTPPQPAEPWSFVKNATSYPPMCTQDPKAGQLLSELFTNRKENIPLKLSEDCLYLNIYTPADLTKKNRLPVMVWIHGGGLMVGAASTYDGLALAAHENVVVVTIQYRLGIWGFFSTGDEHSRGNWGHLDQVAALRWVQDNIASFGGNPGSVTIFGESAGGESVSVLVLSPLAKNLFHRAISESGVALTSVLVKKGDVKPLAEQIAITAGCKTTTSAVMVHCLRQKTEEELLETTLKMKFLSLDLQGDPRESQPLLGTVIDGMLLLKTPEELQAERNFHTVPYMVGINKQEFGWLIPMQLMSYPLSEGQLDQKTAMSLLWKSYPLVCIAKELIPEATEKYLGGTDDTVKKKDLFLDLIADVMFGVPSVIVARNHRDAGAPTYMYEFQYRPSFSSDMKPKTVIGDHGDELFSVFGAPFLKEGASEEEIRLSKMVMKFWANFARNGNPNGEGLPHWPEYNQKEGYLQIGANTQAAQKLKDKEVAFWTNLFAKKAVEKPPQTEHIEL
The series can be described thus: Hydrolysis of 4-methylumbelliferyl oleate. It counts as biochemical.

The target of series [5] is T3, carboxylesterase activity in THP-1 macrophages (Homo sapiens, UniProt P23141).
T3 sequence (P23141 18-567): T2 sequence (P23141 18-567)
It counts as cell-based.

Series [6] addresses T4, carboxylesterase activity (CES1) in intact THP-1 cells (Homo sapiens, UniProt P23141).
T4 sequence (P23141 18-567): T2 sequence (P23141 18-567)
As to the kind of experiment: Carboxylesterase activity after 24-h treatment of intact THP-1 monocytes. It counts as cell-based. The following applies: for Inhibition of carboxylesterase activity in intact THP-1 monocytes: 24 h treatment of intact cells, activity measured in lysates; for Relative effectiveness at inhibiting carboxylesterase activity in intact cells: 24 h treatment, comparison of the three oxons.

The target in series [7] is T5, carboxylesterase activity of human THP-1 cell lysates (CES1) (Homo sapiens, UniProt P23141).
T5 sequence (P23141 18-567): T2 sequence (P23141 18-567)
It counts as biochemical. The settings on record: para-nitrophenyl valerate.

The test system of series [8] is THP-1 cells. As to the kind of experiment: Cell viability by Trypan Blue exclusion after oxon exposure. The following applies: 24 h, concentrations of oxon used, data not shown. It counts as cell-based, human.
The conditions of series [9]: cited from earlier work.
In series [10] the test system is CES1 protein expression. As to the kind of experiment: Western blot of CES1 protein in paraoxon-treated THP-1 cells. It counts as cell-based, human. The following applies: 10 μM paraoxon 24 h. (A western blot detects proteins with antibodies after separation by electrophoresis.)
Series [11] deals with cholesteryl ester hydrolase activity in human THP1 cell lysate. As to the kind of experiment: Hydrolysis of cholesteryl [1-14C]oleate. It counts as biochemical. The following applies: 10 μM paraoxon for 10 min before 75 μM cholesteryl [1-14C]oleate.
The subject of series [12] is lipolytic activity of THP-1 cell lysates. As to the kind of experiment: Hydrolysis of 4-MUBO by THP-1 cell lysates. It counts as biochemical, human. The settings on record: paraoxon up to 10 μM; Supplementary Fig. 2.
Series [13] has as its target T2, CES1. It counts as binding.

For `O=C(C(=O)c1ccccc1)c1ccccc1` [Benzil, diphenylethane-1,2-dione], the “Inhibition of intracellular carboxylesterase activity” value in [1] (U373MG cells transfected with plasmids containing mammalian CES cDNA) was “effective inhibitor”. In addition, in series [1] (U373MG cells), the Cell permeability result is “cell-permeable” and the Cytotoxicity result is “non-cytotoxic”. The “Increase in intracellular cholesteryl ester levels” value in series [2] (50 μM benzil during 48-h cholesterol efflux period) is above 3 fold. In [2], the “Total cellular cholesterol content of macrophages” value is given as “did not significantly change” and the Free cholesterol levels entry was “similar”. Moreover, the “Inhibition of CEL” value in [3] is given as “does not inhibit”. For the same compound, in series [4], the “Inhibition of lipase activity of CES1” value is “can be inhibited”. In addition, in series [5], the “Carboxylesterase activity in cell lysate from treated macrophages” value is “not significantly inhibited”.
For `CCOP(=O)(OCC)Oc1nc(Cl)c(Cl)cc1Cl` [Chlorpyrifos oxon], in series [6], the “Inhibition of carboxylesterase activity in intact THP-1 monocytes” value (from here on “Inhibition … in intact THP-1 monocytes”) was “inhibited by each oxon in a dose-dependent manner” and the “Relative effectiveness at inhibiting carboxylesterase activity in intact cells” value was “least effective”. Besides, the “Inhibition of carboxylesterase activity in cell lysates” value (“Inhibition … in cell lysates” for short) in series [7] is reported as “inhibited carboxylesterase activity in cell lysates in a concentration-dependent manner”. For the same compound, in series [8], the Overall cell viability result is “did not affect overall cell viability”. Also, the “Lipophilicity rank among the three oxons” value in series [9] was “most lipophilic”.
With `COP(=O)(OC)Oc1ccc([N+](=O)[O-])cc1` [Methyl paraoxon], the “Inhibition … in intact THP-1 monocytes” value in series [6] was “inhibited by each oxon in a dose-dependent manner”. In [7], the “Inhibition … in cell lysates” value is reported as “inhibited carboxylesterase activity in cell lysates in a concentration-dependent manner”. Also, the Overall cell viability entry in series [8] is “did not affect overall cell viability”. In addition, in series [9], the “Lipophilicity rank among the three oxons” value is recorded as “least lipophilic”.
With `CCOP(=O)(OCC)Oc1ccc([N+](=O)[O-])cc1` [Paraoxon], in series [6], the “Inhibition … in intact THP-1 monocytes” value is listed as “inhibited by each oxon in a dose-dependent manner” and the “Relative effectiveness at inhibiting carboxylesterase activity in intact cells” value was “most effective”. The “CES1 activity on native PAGE gels” value in series [6] (intact cells, 10 μM paraoxon 24 h, α,β-naphthyl acetate stain) is given as “markedly inhibited”. In addition, the “Amount of CES1 protein compared to control (vehicle) treated cells” value in [10] is “no difference”. Besides, the “Intracellular cholesteryl ester retention” value in series [2] (10 μM paraoxon during 48-h cholesterol efflux) is recorded as “significant increase”. In addition, in [2], the “Total cellular cholesterol content of macrophages” value was “did not significantly change” and the Free cholesterol levels entry is on record as “modest but significant reduction”. In series [7], the “Inhibition … in cell lysates” value is given as “inhibited carboxylesterase activity in cell lysates in a concentration-dependent manner”. For the same compound, in series [11], the “Reduction of CEH activity of THP1 cell lysates” value was determined as 23%. Besides, the Overall cell viability result in [8] is “did not affect overall cell viability”. The “Inhibition of CEL” value in series [3] was “very sensitive”. In series [12], the “Inhibition of lipolytic activity of THP-1 cell lysates toward 4-MUBO” value is “no significant inhibiton of lipase activity”. Also, the “Inhibition of lipase activity of CES1” value in [4] (4-MUBO substrate, Supplementary Fig. 1) is “can be inhibited”. Further, the “Inhibition of carboxylesterase activity in cell lysate from treated macrophages” value in series [5] (10 μM paraoxon, compared to control cells, p≤0.05) is 81%. In series [13] (lysate 1 mg/ml pre-treated 15 min at 37°C, then 2 μM FP-biotin 1 h), the “Paraoxon concentrations that completely inhibited FP-biotin labeling of CES1” value is on record as above 1 nM. In addition, the “Effect on FP-biotin labeling of CES1” value in series [13] (pre-treatment with paraoxon at 0.01 nM) was “did not prevent labeling”.
